For one assay, the target named is YES1 kinase (Homo sapiens, UniProt P07947). The assay is described as follows: YES1 kinase inhibition, ADP Glo assay (Promega). In kind it is biochemical. As to conditions: for inhibition at 0.01 µM: compound 10 nM, read-out: YES1 enzyme, % inhibition, 10 nM; for inhibition at 0.1 µM: compound 100 nM, read-out: YES1 enzyme, % inhibition, 100 nM; for IC50: class symbols, read-out: YES1 enzyme, IC50; for inhibition at 0.001 µM: read-out: YES1 enzyme, % inhibition, 1 nM. In a few lines:
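ADP-Glo luminescence after a 40 min room-temperature reaction of YES1 with ATP and substrate (buffer with MnCl2 and DTT; 10 min compound preincubation) was used as readout. Percent inhibition at 1, 10 and 100 nM compound was calculated relative to negative control after background subtraction, and IC50 values derived.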
Background: ADP-Glo first removes unused ATP, then detects ADP through luciferase.

In assay [1] the test system is KYSE-70 esophageal cancer cell line. Description: Cell growth inhibition of KYSE-70 (Sulforhodamine B). As to conditions: Homo sapiens; KYSE-70, 72 hours; read-out: KYSE70 GI50. The assay is classed as cell-based. In a few lines: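 KYSE-70 cells (YES1-amplified) in RPMI-1640 with 10% FBS were seeded 24 h before treatment with compound at 0.0046–10 µM final. After 72 h, cells were TCA-fixed and stained with sulforhodamine B, with absorbance read at 510 nm. GI50 was derived with a time-zero plate set to 0% and the vehicle control to 100%, in duplicate tests.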

YES1 kinase, sequence (P07947 whole entry): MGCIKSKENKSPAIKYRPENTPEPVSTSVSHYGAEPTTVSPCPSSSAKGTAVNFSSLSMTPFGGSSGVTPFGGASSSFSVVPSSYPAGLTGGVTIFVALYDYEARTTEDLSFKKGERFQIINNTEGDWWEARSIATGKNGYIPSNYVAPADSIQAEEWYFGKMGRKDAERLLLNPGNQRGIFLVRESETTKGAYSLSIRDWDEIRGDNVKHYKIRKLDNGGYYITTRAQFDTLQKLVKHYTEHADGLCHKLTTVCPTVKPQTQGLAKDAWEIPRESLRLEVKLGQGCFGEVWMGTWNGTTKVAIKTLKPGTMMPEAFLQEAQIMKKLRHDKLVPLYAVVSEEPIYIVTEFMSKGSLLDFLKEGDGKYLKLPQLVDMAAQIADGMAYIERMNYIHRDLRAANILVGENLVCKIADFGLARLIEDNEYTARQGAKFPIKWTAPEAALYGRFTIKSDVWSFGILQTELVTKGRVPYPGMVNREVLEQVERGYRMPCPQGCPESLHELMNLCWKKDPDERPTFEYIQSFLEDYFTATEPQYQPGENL

A word on the inhibition: it is the change of the read-out against control, counted positive when it falls. Usually GI50 stands for the concentration that inhibits growth by half. For the compound `COc1cc(-c2cc(N3C[C@@H]4[C@H](C3)[C@H]4N(C)C)n3ncnc(N)c23)ccc1NC(=O)OC(C)(C)C` [Example 42, tert-butyl (4-(4-amino-7-((1R,5S,6s)-6-(dimethylamino)-3-azabicyclo[3.1.0]hexan-3-yl)pyrrolo[2,1-f][1,2,4]triazin-5-yl)-2-methoxyphenyl)carbamate], at YES1 kinase, the inhibition at 0.01 µM is 63% and the inhibition at 0.1 µM was determined as 90%. Besides, the GI50 in assay [1] is at most 100 nM.
What is called IC50 is the concentration needed to halve the response being measured. On to `CNCCC1CCN(c2cc(-c3ccc(NC(=O)OC(C)(C)C)c(OC)c3)c3c(N)ncnn23)CC1` [Example 108, tert-butyl (4-(4-amino-7-(4-(2-(methylamino)ethyl)piperidin-1-yl)pyrrolo[2,1-f][1,2,4]triazin-5-yl)-2-methoxyphenyl)carbamate], for which, on YES1 kinase, the IC50 was at most 100 nM and the inhibition at 0.01 µM was 52%. Also, the inhibition at 0.001 µM on YES1 kinase (compound 1 nM) is 38%. Moreover, the GI50 in assay [1] is at most 100 nM.
Turning to `COc1cc(-c2cc(NC3CCNCC3)n3ncnc(N)c23)ccc1NC(=O)OC(C)(C)C` [Example 120, tert-butyl (4-(4-amino-7-(piperidin-4-ylamino)pyrrolo[2,1-f][1,2,4]triazin-5-yl)-2-methoxyphenyl)carbamate], on YES1 kinase, the inhibition at 0.01 µM was 40% and the inhibition at 0.1 µM stood at 78%. In assay [1], the 50% growth inhibitory concentration (GI50) was in the range of 100 to 1000 nM.
For `CNC1CCN(c2c(F)c(-c3ccc(NC(=O)OC(C)(C)C)c(OC)c3)c3c(N)ncnn23)CC1` [Example 129, tert-butyl (4-(4-amino-6-fluoro-7-(4-(methylamino)piperidin-1-yl)pyrrolo[2,1-f][1,2,4]triazin-5-yl)-2-methoxyphenyl)carbamate], at YES1 kinase, the IC50 was at most 100 nM, the inhibition at 0.01 µM stood at 70% and the inhibition at 0.1 µM was 92%. The GI50 in assay [1] was at most 100 nM.
Consider `COc1cc(-c2cc(N3CCC4(CCC(=O)N4)CC3)n3ncnc(N)c23)ccc1NC(=O)OC(C)(C)C` [Example 54, tert-butyl (4-(4-amino-7-(2-oxo-1,8-diazaspiro[4.5]decan-8-yl)pyrrolo[2,1-f][1,2,4]triazin-5-yl)-2-methoxyphenyl)carbamate], for which, on YES1 kinase, the IC50 is at most 100 nM, the inhibition at 0.01 µM worked out at 20% and the inhibition at 0.1 µM came out at 60%. In assay [1], the GI50 is at most 100 nM.
On to `COc1cc(-c2cc(N3CCC[C@@H](CN(C)C)C3)n3ncnc(N)c23)ccc1NC(=O)OC(C)(C)C` [Example 40, tert-butyl (S)-(4-(4-amino-7-(3-((dimethylamino)methyl)piperidin-1-yl)pyrrolo[2,1-f][1,2,4]triazin-5-yl)-2-methoxyphenyl)carbamate], for which, on YES1 kinase, the inhibition at 0.01 µM worked out at 5% and the inhibition at 0.1 µM was 43%. The GI50 in assay [1] fell in the range of 1000 to 10000 nM.
The corresponding values for `COc1cc(-c2cc(N3CCC(CN(C)C)C3)n3ncnc(N)c23)ccc1NC(=O)OC(C)(C)C` (stereo not shown) [Example 20, tert-butyl (4-(4-amino-7-(3-((dimethylamino)methyl)pyrrolidin-1-yl)pyrrolo[2,1-f][1,2,4]triazin-5-yl)-2-methoxyphenyl)carbamate] are 36%, 70% and 100 to 1000 nM.
`COc1cc(-c2cc(N[C@H]3C[C@H](N)C3)n3ncnc(N)c23)ccc1NC(=O)OC(C)(C)C` [Example 119, tert-butyl (4-(4-amino-7-(((1r,3r)-3-aminocyclobutyl)amino)pyrrolo[2,1-f][1,2,4]triazin-5-yl)-2-methoxyphenyl)carbamate]: at YES1 kinase (compound 1 nM), the “YES1 kinase inhibition at 1 nM (in words)” value was “could be inhibited even at a low concentration of 1 nM” and the inhibition at 0.001 µM worked out at 24%. The inhibition at 0.01 µM at YES1 kinase is 55%. Besides, the GI50 in assay [1] lay in the range of 100 to 1000 nM.

The values above are taken from patent US20260297095A1, “NOVEL PYRROLOTRIAZINE DERIVATIVE AND USE THEREOF” (Pelemed Co., Ltd., priority 2024, published 2026).
